{"source": "ChEMBL document CHEMBL1212763", "about": "“Pharmacokinetics and safety of S/GSK1349572, a next-generation HIV integrase inhibitor, in healthy volunteers” (Antimicrob Agents Chemother, 2010)", "key": {"[1]": {"assay": "Half life in healthy human at 10 mg administered as single dose suspension", "format": "ADME, organism-based", "details": "in vivo"}, "[2]": {"tested_on": "Homo sapiens", "assay": "Toxicity in healthy human assessed as incidence of drug related incidence of headache at 50 mg, qd for 10 days administered as suspension measured after last dose", "format": "organism-based", "details": "in vivo, 240 h"}, "[3]": {"assay": "Drug level at 24 hrs in healthy human at 2 mg administered as single dose suspension", "format": "ADME, organism-based", "details": "in vivo, read-out: Drug uptake"}, "[4]": {"tested_on": "Homo sapiens", "assay": "Toxicity in healthy human assessed as incidence of drug related incidence of pharyngolaryngeal pain at 25 mg, qd for 10 days administered as suspension measured after last dose coadministered with 3 mg CYP3A4 probe midazolam", "format": "organism-based", "details": "in vivo, 240 h"}, "[5]": {"assay": "AUC (0-infinity) in healthy human at 10 mg administered as single dose suspension", "format": "ADME, organism-based", "set-up": "dose 10 mg, time infinity", "details": "plasma"}, "[6]": {"assay": "AUC (0-tau) in healthy human at 10 mg, qd for 10 days administered as suspension measured after last dose", "format": "ADME, organism-based", "details": "plasma"}, "[7]": {"tested_on": "Homo sapiens", "assay": "Toxicity in healthy human assessed as incidence of drug related incidence of somnolence at 2 mg administered as single dose suspension", "format": "organism-based", "details": "in vivo"}, "[8]": {"tested_on": "Homo sapiens", "assay": "Toxicity in healthy human assessed as incidence of drug related incidence of somnolence at 50 mg administered as single dose suspension", "format": "organism-based", "details": "in vivo"}, "[9]": {"assay": "Cmax in healthy human at 5 mg administered as single dose suspension", "format": "ADME, organism-based", "set-up": "dose 5 mg", "details": "in vivo"}, "[10]": {"assay": "Cmax in healthy human at 50 mg administered as single dose suspension", "format": "ADME, organism-based", "set-up": "dose 50 mg", "details": "in vivo"}, "[11]": {"tested_on": "Homo sapiens", "assay": "Toxicity in healthy human assessed as incidence of adverse events at 2 to 100 mg administered as single dose suspension", "format": "organism-based", "details": "in vivo"}, "[12]": {"assay": "Apparent oral clearance in healthy human at 5 mg administered as single dose suspension", "format": "ADME, organism-based", "details": "in vivo"}, "[13]": {"assay": "Drug level in healthy human at 10 mg, qd for 10 days administered as suspension measured after last dose", "format": "ADME, organism-based", "details": "in vivo, read-out: Drug uptake"}, "[14]": {"assay": "Drug level at 24 hrs in healthy human at 10 mg administered as single dose suspension", "format": "ADME, organism-based", "details": "in vivo, read-out: Drug uptake"}, "[15]": {"tested_on": "Homo sapiens", "assay": "Toxicity in healthy human assessed as incidence of drug related incidence of headache at 25 mg, qd for 10 days administered as suspension measured after last dose coadministered with 3 mg CYP3A4 probe midazolam", "format": "organism-based", "details": "in vivo, 240 h"}, "[16]": {"assay": "Apparent oral clearance in healthy human at 2 mg administered as single dose suspension", "format": "ADME, organism-based", "details": "in vivo"}, "[17]": {"assay": "Tmax in healthy human at 50 mg, qd for 10 days administered as suspension measured after last dose", "format": "ADME, organism-based", "details": "in vivo"}, "[18]": {"assay": "Tmax in healthy human at 10 mg, qd for 10 days administered as suspension measured after last dose", "format": "ADME, organism-based", "details": "in vivo"}, "[19]": {"assay": "Drug level in healthy human at 50 mg, qd for 10 days administered as suspension measured after last dose", "format": "ADME, organism-based", "details": "in vivo, read-out: Drug uptake"}, "[20]": {"tested_on": "Homo sapiens", "assay": "Toxicity in healthy human assessed as incidence of drug related incidence of somnolence at 25 mg administered as single dose suspension", "format": "organism-based", "details": "in vivo"}, "[21]": {"assay": "Cmax in healthy human at 10 mg administered as single dose suspension", "format": "ADME, organism-based", "set-up": "dose 10 mg", "details": "in vivo"}, "[22]": {"tested_on": "Homo sapiens", "assay": "Toxicity in healthy human assessed as incidence of adverse events at 10 to 50 mg, qd for 10 days administered as suspension measured after last dose", "format": "organism-based", "details": "in vivo, 240 h"}, "[23]": {"assay": "Tmax in healthy human at 10 mg administered as single dose suspension", "format": "ADME, organism-based", "details": "in vivo"}, "[24]": {"assay": "Cmax in healthy human at 25 mg, qd for 10 days administered as suspension measured after last dose", "format": "ADME, organism-based", "set-up": "dose 25 mg", "details": "in vivo"}, "[25]": {"assay": "Drug level in healthy human at 25 mg, qd for 10 days administered as suspension measured after last dose", "format": "ADME, organism-based", "details": "in vivo, read-out: Drug uptake"}, "[26]": {"tested_on": "Homo sapiens", "assay": "Toxicity in healthy human assessed as incidence of drug related incidence of somnolence at 5 mg administered as single dose suspension", "format": "organism-based", "details": "in vivo"}, "[27]": {"assay": "Tmax in healthy human at 25 mg administered as single dose suspension", "format": "ADME, organism-based", "details": "in vivo"}, "[28]": {"assay": "Apparent oral clearance in healthy human at 10 mg administered as single dose suspension", "format": "ADME, organism-based", "details": "in vivo"}, "[29]": {"assay": "Tmax in healthy human at 50 mg administered as single dose suspension", "format": "ADME, organism-based", "details": "in vivo"}, "[30]": {"assay": "Cmax in healthy human at 100 mg administered as single dose suspension", "format": "ADME, organism-based", "set-up": "dose 100 mg", "details": "in vivo"}, "[31]": {"tested_on": "Homo sapiens", "assay": "Toxicity in healthy human assessed as incidence of drug related incidence of pruritis at 10 mg, qd for 10 days administered as suspension measured after last dose", "format": "organism-based", "details": "in vivo, 240 h"}, "[32]": {"assay": "AUC (0-infinity) in healthy human at 50 mg administered as single dose suspension", "format": "ADME, organism-based", "set-up": "dose 50 mg, time infinity", "details": "plasma"}, "[33]": {"assay": "Cmax in healthy human at 10 mg, qd for 10 days administered as suspension measured after last dose", "format": "ADME, organism-based", "set-up": "dose 10 mg", "details": "in vivo"}, "[34]": {"assay": "Drug level at 24 hrs in healthy human at 50 mg administered as single dose suspension", "format": "ADME, organism-based", "details": "in vivo, read-out: Drug uptake"}, "[35]": {"assay": "Half life in healthy human at 2 mg administered as single dose suspension", "format": "ADME, organism-based", "details": "in vivo"}, "[36]": {"tested_on": "Homo sapiens", "assay": "Toxicity in healthy human assessed as incidence of drug related incidence of pruritis at 25 mg, qd for 10 days administered as suspension measured after last dose", "format": "organism-based", "details": "in vivo, 240 h"}, "[37]": {"assay": "Drug level at 24 hrs in healthy human at 100 mg administered as single dose suspension", "format": "ADME, organism-based", "details": "in vivo, read-out: Drug uptake"}, "[38]": {"assay": "AUC (0-infinity) in healthy human at 5 mg administered as single dose suspension", "format": "ADME, organism-based", "set-up": "dose 5 mg, time infinity", "details": "plasma"}}}
{"smiles": "C[C@@H]1CCO[C@H]2Cn3cc(C(=O)NCc4ccc(F)cc4F)c(=O)c([O-])c3C(=O)N12.[Na+]", "note": "[DOLUTEGRAVIR SODIUM]", "values": [{"measurement": "half-life", "setting": "[1]", "result": 12.7, "unit": "h"}, {"measurement": "Activity", "setting": "[2]", "result": 22, "unit": "%"}, {"measurement": "concentration at 24 h", "setting": "[3]", "result": 38.2, "unit": "ng/mL"}, {"measurement": "Activity", "setting": "[4]", "result": 0, "unit": "%"}, {"measurement": "AUC(0-inf)", "setting": "[5]", "result": 14600, "unit": "ng·h/mL"}, {"measurement": "AUC tau at 240 h", "setting": "[6]", "result": 16700, "unit": "ng·h/mL"}, {"measurement": "Activity", "setting": "[7]", "result": 0, "unit": "%"}, {"measurement": "Activity", "setting": "[8]", "result": 33, "unit": "%"}, {"measurement": "Cmax", "setting": "[9]", "result": 661, "unit": "ng/mL"}, {"measurement": "Cmax", "setting": "[10]", "result": 4560, "unit": "ng/mL"}, {"measurement": "Activity", "setting": "[11]", "result": "Non-toxic"}, {"measurement": "CL/F", "setting": "[12]", "result": 9.33, "unit": "mL/min"}, {"measurement": "concentration at 240 h", "setting": "[13]", "result": 350, "unit": "ng/mL"}, {"measurement": "concentration at 24 h", "setting": "[14]", "result": 196, "unit": "ng/mL"}, {"measurement": "Activity", "setting": "[15]", "result": 0, "unit": "%"}, {"measurement": "CL/F", "setting": "[16]", "result": 12, "unit": "mL/min"}, {"measurement": "Tmax", "setting": "[17]", "result": 1, "unit": "h"}, {"measurement": "Tmax", "setting": "[18]", "result": 0.5, "unit": "h"}, {"measurement": "concentration at 240 h", "setting": "[19]", "result": 1640, "unit": "ng/mL"}, {"measurement": "Activity", "setting": "[20]", "result": 0, "unit": "%"}, {"measurement": "Cmax", "setting": "[21]", "result": 1230, "unit": "ng/mL"}, {"measurement": "Activity", "setting": "[22]", "result": "Non-toxic"}, {"measurement": "Tmax", "setting": "[23]", "result": 0.63, "unit": "h"}, {"measurement": "Cmax", "setting": "[24]", "result": 3090, "unit": "ng/mL"}, {"measurement": "concentration at 240 h", "setting": "[25]", "result": 840, "unit": "ng/mL"}, {"measurement": "Activity", "setting": "[26]", "result": 0, "unit": "%"}, {"measurement": "Tmax", "setting": "[27]", "result": 0.75, "unit": "h"}, {"measurement": "CL/F", "setting": "[28]", "result": 11.5, "unit": "mL/min"}, {"measurement": "Tmax", "setting": "[29]", "result": 1.25, "unit": "h"}, {"measurement": "Cmax", "setting": "[30]", "result": 8140, "unit": "ng/mL"}, {"measurement": "Activity", "setting": "[31]", "result": 0, "unit": "%"}, {"measurement": "AUC(0-inf)", "setting": "[32]", "result": 73200, "unit": "ng·h/mL"}, {"measurement": "Cmax", "setting": "[33]", "result": 1470, "unit": "ng/mL"}, {"measurement": "concentration at 24 h", "setting": "[34]", "result": 1060, "unit": "ng/mL"}, {"measurement": "half-life", "setting": "[35]", "result": 12.7, "unit": "h"}, {"measurement": "Activity", "setting": "[36]", "result": 0, "unit": "%"}, {"measurement": "concentration at 24 h", "setting": "[37]", "result": 1800, "unit": "ng/mL"}, {"measurement": "AUC(0-inf)", "setting": "[38]", "result": 8870, "unit": "ng·h/mL"}]}
